Biological target: T1, HCV NS3 helicase NS3h_1b(con1) (Hepatitis C virus genotype 1b, UniProt Q9WMX2)
T1 construct: truncated C-terminally His-tagged NS3 proteins lacking the N-terminal protease, called NS3h; His-tag (C); made in house
Assay: MBHA screen of NCI mechanistic set library at 20 μM (percent inhibition, compound interference)
Format: biochemical
Conditions: compounds at 20 μM; for Inh. (%) (Inhibition): calculated from Equation 1
Summary of the method: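 Molecular beacon-based DNA unwinding assay; compounds screened at 20 μM in triplicate, with DMSO-only negative and 500 nM dT20 positive controls. Fluorescence (ex 643/em 670 nm) was read before and 30 min after adding ATP to 1 mM. Percent inhibition came from the change relative to DMSO controls; interference from pre-ATP fluorescence versus DMSO controls.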

[1] = MBHA with DNA substrate, assay interference calculated with Equation 2
[2] = assay interference calculated with Equation 2 (fluorescence vs DMSO-only controls before ATP)

T1 sequence (Q9WMX2 1192-1657): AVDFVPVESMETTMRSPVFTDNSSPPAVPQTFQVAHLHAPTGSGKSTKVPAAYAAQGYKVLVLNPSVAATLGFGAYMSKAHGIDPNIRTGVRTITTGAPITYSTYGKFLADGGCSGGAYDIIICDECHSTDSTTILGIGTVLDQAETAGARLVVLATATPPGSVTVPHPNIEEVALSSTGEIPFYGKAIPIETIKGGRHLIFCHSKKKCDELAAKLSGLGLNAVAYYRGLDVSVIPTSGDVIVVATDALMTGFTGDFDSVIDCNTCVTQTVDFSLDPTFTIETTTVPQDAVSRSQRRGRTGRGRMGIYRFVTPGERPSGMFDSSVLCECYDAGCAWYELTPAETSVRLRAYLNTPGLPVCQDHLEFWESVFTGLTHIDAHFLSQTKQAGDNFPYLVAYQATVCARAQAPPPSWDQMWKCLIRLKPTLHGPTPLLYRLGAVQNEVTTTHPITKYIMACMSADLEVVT

Int.* (Ratio) (Interference) [1]	Inh. (%) (Inhibition) (MBHA with DNA substrate)	Inh. (%) (Inhibition) (MBHA with a DNA substrate)	Int.* (Ratio) (Interference) [2]	Inh. (%) (Inhibition) (MBHA with DNA substrate, 20 µM)	Compound
		−45.1	1.17		CCOC(=O)c1ccc(N=Cc2ccc(N(CCC#N)CCC#N)cc2)cc1 [Compound 620279]
		−30.3	1.01		Cc1c(N=Cc2ccc(N(CCC#N)CCC#N)cc2)c(=O)n(-c2ccccc2)n1C [Compound 620280]
0.91	−10.5				C=C1C(=O)C23CC[C@@H]4C(C)(C(=O)OC)CCCC4(C)[C@@H]2CCC1(O)C3 (stereo partly drawn) [Compound 620358]
0.98	−2.8				CC1=NN(C(=O)c2ccncc2)C(=O)C1N=Nc1ccc(F)cc1 (stereo not drawn) [Compound 621094]
1.16	−10.4				Cc1cc2c(cc1C)[n+](=O)c(C(=O)/C=C/c1ccccc1[N+](=O)[O-])c(C)n2[O-] [Compound 621486]
0.97				3.5	[Mo] [Compound 622116]
1.11				54.2	[Mo] [Compound 622124]
1.09	4.9				COC1=CC(=O)c2c(ccc3ncnc(N)c23)C1=O [Compound 622190]
0.93	−14.9				COc1ccc(-n2/c(=N/C(=S)N(C)C)ss/c2=N\C(=S)N(C)C)cc1 [Compound 622586]
		−21.0	0.94		CN(C)C(=S)/N=c1\ss/c(=N\C(=S)N(C)C)n1-c1ccc2c(c1)OCO2 [Compound 622589]
1.01	−2.1				Br.CN(C)c1nc(=NCc2ccco2)ss1 [Compound 622608]
		−6.5	0.95		CCOC(=O)CCc1c(C)c2c(O)cc(O)cc2oc1=O [Compound 622616]
		−26.2	1.09		O=[N+]([O-])c1cc(C(F)(F)F)cc([N+](=O)[O-])c1CCl [Compound 622627]
1.10	−13.4				NC(=O)c1c([N+](=O)[O-])cc(C(F)(F)F)cc1[N+](=O)[O-] [Compound 622640]
1.04	−1.3				CCOC(=O)/N=C(\N)SCc1ccccc1.Cl [Compound 622684]
0.92	27.4				Cn1ncc2cc3c(Nc4ccc(Cl)cc4)cccc3nc21 [Compound 622732]

The remaining lines, values behind:

Compound	Int.* (Ratio) (Interference) [1]	Inh. (%) (Inhibition) (MBHA with DNA substrate)	Inh. (%) (Inhibition) (MBHA with a DNA substrate)	Int.* (Ratio) (Interference) [2]	Inh. (%) (Inhibition) (MBHA with DNA substrate, 20 µM)
Cl.Nc1ccc2cc3ccc(N)cc3nc2c1 [Compound 605756]	0.33	14.1			
CC(C)(C)OC(=O)NC(Cc1ccccc1)C(=O)OCN1C(=O)C2C3C=CC(C2C1=O)C1C2C(=O)N(COC(=O)C(Cc4ccccc4)NC(=O)OC(C)(C)C)C(=O)C2C31 (stereo not drawn) [Compound 607316]	0.97	−1.8			
O=[N+]([O-])c1ccc(-c2cn(-c3ccc(Cl)cc3)cn2)cc1 [Compound 610744]	0.83	21.5			
COc1cc(C(O)CCBr)c(OC)cc1C (stereo not drawn) [Compound 611750]	0.94	−8.1			
C/C1=C\[C@H](C)C[C@H](C)OC(=O)CC(c2ccc(O)cc2)NC(=O)[C@@H](Cc2c(Br)[nH]c3ccccc23)N(C)C(=O)[C@H](C)NC(=O)[C@@H](C)C1 (stereo partly drawn) [Compound 613009]			−21.7	0.94	
CC(=O)Oc1ccc(C(c2ccc(OC(C)=O)cc2)c2ccccn2)cc1 [Compound 614826]			−4.8	1.06	
CC1(C)C(O)OC(O)C1(C)C (stereo not drawn) [Compound 614928]	0.99	19.1			
C=C(C#N)C(=O)OCC(CC)CC.C=C(C#N)C(=O)OCC(CC)CC.CS(C)=O.CS(C)=O.Nc1c(N=Nc2ccc(-c3ccc(N=Nc4cc(S(=O)(=O)[O-])c5ccccc5c4N)cc3)cc2)cc(S(=O)(=O)[O-])c2ccccc12.[Pt+2] [Compound 615593]	0.91	−17.7			
OC(CBr)C(O)C(O)C(O)CBr (stereo not drawn) [Compound 616232]	1.02	−0.6			
CC(C)(C)[Si](C)(C)OCC1CCC(n2cnc3c(N)ncnc32)O1 (stereo not drawn) [Compound 616355]	1.01	−12.6			
CCCCCC/C=C\CCCCCCCCCc1cccc(OC)c1O [Compound 617540]			−28.4	1.11	
Cl.Nc1nccc2c1ncn2C1C=C(CO)C(O)C1O (stereo not drawn) [Compound 617989]	0.96	−12.9			
COc1ccc2c(c1)C=C([N+](=O)[O-])C(C1OC(C)(C)OC1C1COC(C)(C)O1)O2 (stereo not drawn) [Compound 618261]			−6.4	0.95	
O=C1C(Br)=C(Br)C(=O)c2ccccc21 [Compound 618332]	1.03	−18.7			
C/C=C(\CCC1NCCc2c1[nH]c1ccccc21)[Si](C)(C)C (stereo not drawn) [Compound 619165]	0.89	13.6			
[Cl-].[Cl-].[Cl-].[Rh+3].c1ccc(-c2ccnc3c2ccc2c(-c4ccccc4)ccnc23)cc1.c1ccc(-c2ccnc3c2ccc2c(-c4ccccc4)ccnc23)cc1.c1ccc(-c2ccnc3c2ccc2c(-c4ccccc4)ccnc23)cc1 [Compound 619179]	0.44	23.8			
O=C([O-])c1cc(I)cc(I)c1O.O=C([O-])c1cc(I)cc(I)c1O.[Mn+2] [Compound 619907]			−27.2	0.86	
COC(=O)C[S+]([O-])c1ccccc1 (stereo not drawn) [Compound 620050]			−3.3	0.96	
N#CCCN(CCC#N)c1ccc(C=Nc2ccc(F)cc2)cc1 [Compound 620277]	0.93	17.1			
C[N+](C)(C)CC1CCCC1=O.[I-] (stereo not drawn) [Compound 621889]	1.08	12.2			

Reference: patent publication US9464064B2, “HCV helicase inhibitors and methods of use thereof” (University of Kansas, priority 2011, dated 2016)
